Legend:
Type in all cases: in vivo
[1] = test system: tobacco budworm (Heliothis virescens); test: Activity against tobacco budworm (TBW), sprayed diet cups with eggs; conditions: for mortality at 400 µg/mL: Heliothis virescens, 144 h
Protocol: (§1) In conducting evaluations of insecticidal activity, each test compound was formulated as a 400 ppm solution, and this solution was then diluted with water to give lesser concentrations. The 400 ppm solution was prepared by combining 19.2 mL of .05% solution of Tween 20 (polyoxyethylene (20) sorbitan monolaurate) in water with a solution of 8 mg of the compound in .8 mL of acetone/EtOH (9/1).
Activity against tobacco budworm (Heliothis virescens) was evaluated as follows. A general purpose lepidoptera artificial diet was diluted to half strength with a 5% non nutritive agar. 8 mL of this diet material was dispensed into each one ounce diet cup. One hour prior to treatment 18 to 20 eggs were dispensed onto the diet surface. The cups were then sprayed with formulated material through a flat-fan nozzle. […] Treated cups were air dried prior to sealing with plastic caps. The cups were held for 6 days at room temperature. Activity was then rated based on the total number of live and dead larvae, and on the size of live larvae.

[2] = test system: Phormia regina (blow fly); test: Blow fly larvae test, serum-saturated dental wick; conditions: 24 and 48 hours, which one is reported is not stated; for Percentage of LBF killed at 100 ppm: 100 ppm in bovine serum; for Percentage of LBF killed at 10 ppm: 10 ppm in bovine serum
Protocol: (§2) The compound to be evaluated was dissolved in 1 part acetone/1 part ethanol to provide a stock solution of the compound at a concentration of 5,000 ppm; this solution was shaken for 15 minutes on a sonicator. Portions of the stock solution were placed in 15 ml test tubes, and portions of bovine serum were added to provide the desired dilution of the test compound. A dental wick was placed in each test tube and the serum allowed to saturate the wick.
For the blow fly test, approximately 20 blow fly larvae were placed onto the top center of the saturated dental wick, and the test tube was plugged with cotton and incubated at 27°C and 70% humidity for 24 and 48 hours. Larval mortality counts were then made, and adjusted for any mortality in the vehicle control, to determine percent efficacy against blow fly.

[3] = test system: Stomoxys calcitrans (stable fly); test: Adult stable fly test, serum-saturated dental wick; conditions: readings at 24 and 48 hours, which one is reported is not stated; for Percentage of ASF killed at 10 ppm: 10 ppm in bovine serum
Protocol: as §2
For the adult stable fly test, the saturated wick was placed on a filter paper in a petri dish, and approximately 10 chilled live, hungry stable flies were placed on the center of the dish bottom. The dish was covered and allowed to incubate at 27°C and 60% relative humidity for 48 hours. Mortality readings were made at each of 24 and 48 hours, and adjusted for any mortality in the vehicle control to determine percent efficacy against adult stable fly.

[4] = test system: two spotted spider mite (Tetranychus urticae); test: Activity against two spotted spider mite (TSSM), sprayed infested squash plants; conditions: RATE 400 (ppm), three days after treatment; for mortality at 400 µg/mL: Tetranychus urticae, 72 h; for % MORTALITY: 4320 min
Protocol: as §1
Activity against cotton aphid (Aphis gossypii) and two spotted spider mite (Tetranychus urticae) was evaluated as follows. Golden crookneck squash plants were grown to the expanded cotyledon stage (about 6 to 8 days). The plants were infested with cotton aphids and two spotted spider mites 16 to 24 hours before application of the test material by transfer of infested foliage cut from a stock colony. Immediately prior to spray application of the test material the transfer foliage is removed from the squash plants. The test is run using concentrations of 400 ppm and 50 ppm. The plants are sprayed with test solution using an atomizing sprayer at 17 psi. Both surfaces of the leaves are covered until runoff, and then allowed to dry. Activity of each compound was determined three days after treatment. Activity was rated as a percent based on the mites/aphids present in plants sprayed with solvent alone.

[5] = test system: beet armyworm (Spodoptera exiqua); test: Activity against beet armyworm (BAW), sprayed diet cups with eggs
Protocol: as §1
Activity against beet armyworm (Spodoptera exiqua) was evaluated as follows. The test is run using concentrations of 400 ppm and 50 ppm. A general purpose lepidoptera artificial diet was diluted to half strength with a 5% non nutritive agar. 8 mL of this diet material was dispensed into one ounce diet cups. One hour prior to treatment, 35 to 40 eggs were dispensed onto the diet surface. The cups were then sprayed with formulated material through a flat-fan nozzle. Treated cups were air dried prior to sealing with plastic caps. The cups were held for 6 days at room temperature. Activity was then rated based on the total number of live and dead larvae, and on the size of live larvae.

[6] = test system: peanut root knot nematode (Meloidogyne arenaria); test: Activity against peanut root knot nematode, sprayed sand with cucumber seeds; conditions: NEMA, RATE 400 (ppm), 10 to 12 days
Protocol: as §1
Activity against peanut root knot nematode (Meloidogyne arenaria) was evaluated as follows. Five untreated cucumber seeds are placed into the bottom of a clear one ounce cup, 20 g of clean white sand is added, and the cups were sprayed while rotating on a pedestal allowing 1.0 mL of a 400 ppm solution to be deposited on the sand. To each cup was dispensed 2.5 to 3.0 mL of deionized water containing 300 to 500 nematodes. The cups were held for 10 to 12 days in an environmental growth chamber at a temperature of 76 to 85°F and ambient humidity of 50 to 60%. After 10 to 12 days the cups were evaluated by inverting the cup and observing nematode mortality and feeding damage to the cucumber plants.

[7] = RATE 64 (unit not given), 8640 min

Molecule	Percentage of ASF killed at 10 ppm [3] [%]	% MORTALITY ([1]; RATE 400 (ppm), 6 days) [%]	Percentage of LBF killed at 10 ppm [2] [%]	further results
CC[C@H]1CCC[C@H](O[C@H]2CC[C@H](N(C)C)[C@@H](C)O2)[C@@H](C)C(=O)C2=C[C@H]3[C@@H]4C[C@H](O[C@@H]5O[C@@H](C)[C@H](OC)[C@@H](OC)[C@H]5OC)C[C@H]4CC[C@H]3[C@@H]2CC(=O)O1 [Example F6, 5,6-Dihydro Spinosyn A]	100			% MORTALITY [1, 7]: 100%; Percentage of LBF killed at 100 ppm [2]: 100%; mortality at 400 µg/mL [4]: 100%
CCC1CCCC(OC2CCC(N(C)C)C(C)O2)C(C)C(=O)C2=CC3C4CC(OC5OC(C)C(OC)C(OC)C5OC)CC4[C@@H]4O[C@@H]4C3C2CC(=O)O1 (stereo partly drawn) [Example F7b, (5R,6S)-Epoxy Spinosyn A]	100	100	100	
5,6-Dihydro Spinosyn A 17-Psa [Example F20]				% MORTALITY ([5]; RATE 400 (ppm), 6 days): 100%
CC[C@H]1CCC[C@H](O[C@H]2CC[C@H](N(C)C)[C@@H](C)O2)[C@@H](C)C(=O)[C@H]2C[C@@H]3[C@@H](CC[C@@H]4C[C@@H](O[C@@H]5O[C@@H](C)[C@H](OC)[C@@H](OC)[C@H]5OC)C[C@H]43)[C@@H]2CC(=O)O1 [Example D1, (14S)-5,6,13,14-Tetrahydro Spinosyn A]	100		<50	% MORTALITY ([1]; RATE 80 (unit not given), 8640 min): 90%
CC[C@H]1CCC[C@H](O[C@H]2CC[C@H](N(C)C)[C@@H](C)O2)[C@@H](C)C(=O)C2=C[C@H]3[C@@H]4C[C@H](O[C@@H]5O[C@@H](C)[C@H](OC)[C@@H](OC)[C@H]5OC)C[C@H]4[C@H]4OC(=O)O[C@H]4[C@H]3[C@@H]2CC(=O)O1 [Example F3, (5S,6R)-Spinosyn A carbonate]	<50		<50	% MORTALITY [1, 7]: 24%
CCC1CCCC(OC2CCC(N(C)C)C(C)O2)C(C)C(=O)C2=CC3C4CC(OC5OC(C)C(OC)C(OC)C5OC)CC4[C@@H](Br)[C@H](OCCO)C3C2CC(=O)O1 (stereo partly drawn) [Example F1, (5R,6R)-5-(2-Hydroxyethoxy)-6-bromo Spinosyn A]	60	100	90	
(5R,6R)-5,6-dibromo-4''-keto Spinosyn A [Example F11a]				% MORTALITY ([5]; RATE 56 (unit not given)): 80%
CCC1CCCC(OC2CCC(N(C)C)C(C)O2)C(C)C(=O)C2=CC3C4CC(OC5OC(C)C(OC)C(OC)C5OC)CC4[C@]4(C)O[C@@H]4C3C2CC(=O)O1 (stereo partly drawn) [Example F8b, (5R,6S)-Epoxy Spinosyn D]	100	100		Percentage of LBF killed at 100 ppm [2]: 100%; % MORTALITY [4]: 90%
CC[C@H]1CCC[C@H](O[C@H]2CC[C@H](N(C)C)[C@@H](C)O2)[C@@H](C)C(=O)C2=C[C@H]3[C@@H]4C[C@H](O[C@@H]5O[C@@H](C)[C@H](OC)[C@@H](OC)[C@H]5OC)C[C@H]4[C@@H](O)[C@@H](O)[C@H]3[C@@H]2CC(=O)O1 [Example F2, (5S,6R)-5,6-Dihydroxy-5,6-dihydro Spinosyn A]	<50		<50	mortality at 400 µg/mL ([1]; RATE 400 (ppm), 6 days): 100%
CC[C@H]1CCC[C@H](O)[C@@H](C)C(=O)C2=C[C@H]3[C@@H]4C[C@H](O[C@@H]5O[C@@H](C)[C@H](OC)[C@@H](OC)[C@H]5OC)C[C@H]4[C@@H](Br)[C@H](OCCO)[C@H]3[C@@H]2CC(=O)O1 [Example E1, (5R,6R)-5-(2-Hydroxyethoxy)-6-bromo Spinosyn A 17-Psa]			<50	mortality at 400 µg/mL ([1]; RATE 400 (ppm), 6 days): 100%; mortality at 400 µg/mL [4]: 60%
CCC1CCCC(O)C(C)C(=O)C2=CC3C4CC(OC5OC(C)C(OC)C(OC)C5OC)CC4C4OC4C3C2CC(=O)O1 [Example E3, (5S,6R)-5,6-Epoxy Spinosyn A 17-Psa]				% MORTALITY [6]: 100%
CCC1CCCC(OC2CCC(N(C)C)C(C)O2)C(C)C(=O)C2=CC3C4CC(OC5OC(C)C(OC)C(OC)C5OC)CC4[C@H]4O[C@H]4C3C2CC(=O)O1 (stereo partly drawn) [Example F7a, (5S,6R)-5,6-Epoxy Spinosyn A]	100	100	90	% MORTALITY [4]: 90%
CC[C@H]1CCC[C@H](O[C@H]2CC[C@H](N(C)C)[C@@H](C)O2)[C@@H](C)C(=O)C2=C[C@H]3[C@@H]4C[C@H](O[C@@H]5O[C@@H](C)[C@H](OC)[C@@H](OC)[C@H]5OC)C[C@H]4[C@H](Br)[C@@H](OC(C)=O)[C@H]3[C@@H]2CC(=O)O1 [Example F4a, (5S,6S)-5-Acetoxy-6-bromo Spinosyn A]	90		<50	mortality at 400 µg/mL ([1]; RATE 400 (ppm), 6 days): 100%
CC[C@H]1CCC[C@H](O[C@H]2CC[C@H](N(C)C)[C@@H](C)O2)[C@@H](C)C(=O)C2=C[C@H]3[C@@H]4C[C@H](O[C@@H]5O[C@@H](C)[C@H](OC)[C@@H](OC)[C@H]5OC)C[C@H]4[C@@H](Br)[C@H](OC(C)=O)[C@H]3[C@@H]2CC(=O)O1 [Example F4b, (5R,6R)-5-Acetoxy-6-bromo-5,6-dihydro Spinosyn A]	60		< 50	mortality at 400 µg/mL ([1]; RATE 400 (ppm), 6 days): 100%
CCOC1C(OC2CC3CCC4C5CC(=O)OC(CC)CCCC(OC6CCC(N(C)C)C(C)O6)C(C)C(=O)C5=CC4C3C2)OC(C)C(OC)C1OC (stereo not drawn) [Example A7, 5,6-Dihydro-2'-O-ethyl Spinosyn H]		100		Percentage of ASF killed at 100 ppm ([3]; 100 ppm in bovine serum): 100%; % MORTALITY [4]: 100%

— patent EP0837870B1, “SYNTHETIC MODIFICATION TO SPINOSYN COMPOUNDS” (Dow AgroSciences LLC, priority 1995, dated 1997)
